Test results reported in paper PMC10313671, “Accelerating the prediction and discovery of peptide hydrogels with human-in-the-loop” (Nature Communications, 2023).
Where a SMILES comes first, the peptide text is derived from it.

Assays:
[1] = Peptide hydrogel formation, vial-inverting method; format: physicochemical; set-up: key to EXP / GELATION: 0: no hydrogel; 1: hydrogel; details: for State: ultrasonication, standing 48 h; for State / GELATION: vial-inverting method; for Concentration: concentration at which the state was recorded: lowest of 30, 60, 90, 120 mM that gave a gel, 120 mM for non-gelating peptides; for GELATION: 1 = hydrogel, 0 = no hydrogel
Method in brief: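 Tetrapeptides dissolved in ultrapure water at 30 mM, pH brought to 6.5–8.5 with 1 N NaOH stepwise with brief ultrasonication, then left 48 h. Gel defined as self-supporting and non-flowing on vial inversion; non-gelling peptides retested at 60, 90 and 120 mM.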

[2] = Transmission electron microscope (negative staining) of peptide assemblies; details: for Morphology: TEM, negative staining with uranyl acetate, 120 kV; for morphology by TEM (in words): aqueous solution or hydrogel, negative staining
Protocol: We used the negative staining technique to observe the morphologies formed by peptides. A micropipette was used to load 10 μL of sample solution to a carbon-coated copper grid, and we used a piece of filter paper to remove the excess solution. After rinsing the grid with the deionized water, we used uranyl acetate to stain the sample for 1 minute and then rinsed the grid with deionized water again.

[3] = 90 mM peptide in ultrapure water, pH 6.5-8.5 (1 N NaOH), no gel at lower concentrations
[4] = 120 mM peptide (highest tested) in ultrapure water, pH 6.5-8.5 (1 N NaOH), precipitate, sol, suspension = no gel
[5] = 30 mM peptide in ultrapure water, pH adjusted to 6.5-8.5 with 1 N NaOH, concentration raised 30/60/90/120 mM until gelation
[6] = 60 mM peptide in ultrapure water, pH 6.5-8.5 (1 N NaOH), no gel at 30 mM

Row | Compound | Concentration [1] [µM] | State [1, 4] | GELATION ([1]; peptide concentration 120 mM) | Morphology ([2]; line of the table gives 120 mM) | further results
1 | CSCC[C@H](NC(=O)[C@@H](N)CCSC)C(=O)N[C@@H](CC(C)C)C(=O)N[C@@H](CC(C)C)C(=O)O [MMLL] (H-MMLL-OH) | 90000 |  |  |  | State [1, 3]: gel; GELATION ([1]; peptide concentration 90 mM): 1; Morphology ([2]; line of the table gives 90 mM): sheet
2 | CSCC[C@H](NC(=O)[C@H](CCSC)NC(=O)[C@H](CCSC)NC(=O)[C@@H](N)CCSC)C(=O)O [MMMM] (H-MMMM-OH) | 120000 | gel | 1 | hybrid(sphere+fibre) | 
3 | CSCC[C@H](NC(=O)[C@@H](N)CCSC)C(=O)N[C@H](C(=O)N[C@H](C(=O)O)C(C)C)C(C)C [MMVV] (H-MMVV-OH) | 30000 |  |  |  | State [1, 5]: gel; GELATION ([1]; peptide concentration 30 mM): 1; Morphology ([2]; line of the table gives 30 mM): particle
4 | CSCC[C@H](NC(=O)[C@@H](N)CCSC)C(=O)N[C@@H](Cc1ccc(O)cc1)C(=O)N[C@@H](Cc1ccc(O)cc1)C(=O)O [MMYY] (H-MMYY-OH) | 120000 | suspension | 0 | particle | 
5 | CSCC[C@H](N)C(=O)N[C@H](C(=O)N[C@@H](Cc1ccccc1)C(=O)N1CCC[C@H]1C(=O)O)C(C)C [MVFP] (H-MVFP-OH) | 60000 |  |  |  | State [1, 6]: gel; GELATION ([1]; peptide concentration 60 mM): 1; Morphology ([2]; line of the table gives 60 mM): fibre
6 | CSCC[C@H](N)C(=O)N[C@H](C(=O)N[C@@H](CCC(N)=O)C(=O)NCC(=O)O)C(C)C [MVQG] (H-MVQG-OH) | 120000 | suspension | 0 | aggregates | 
7 | NC(=O)C[C@H](NC(=O)[C@H](CC(N)=O)NC(=O)[C@H](CC(N)=O)NC(=O)[C@@H](N)CC(N)=O)C(=O)O [NNNN] (H-NNNN-OH) | 120000 | sol | 0 | aggregates | 
8 | CC[C@H](C)[C@H](NC(=O)[C@@H](NC(=O)[C@@H](N)CC(N)=O)[C@@H](C)O)C(=O)N[C@@H](Cc1ccccc1)C(=O)O [NTIF] (H-NTIF-OH) | 60000 |  |  |  | State [1, 6]: gel; GELATION ([1]; peptide concentration 60 mM): 1; Morphology ([2]; line of the table gives 60 mM): fibre
9 | CC(C)[C@H](NC(=O)[C@@H](N)CC(N)=O)C(=O)N[C@@H](Cc1ccccc1)C(=O)N[C@@H](Cc1c[nH]cn1)C(=O)O [NVFH] (H-NVFH-OH) | 120000 | suspension | 0 | aggregates | 
10 | NC(=O)C[C@H](N)C(=O)N[C@@H](Cc1c[nH]c2ccccc12)C(=O)N[C@@H](Cc1c[nH]c2ccccc12)C(=O)N[C@@H](Cc1ccccc1)C(=O)O [NWWF] (H-NWWF-OH) | 30000 |  |  |  | State [1, 5]: gel; GELATION ([1]; peptide concentration 30 mM): 1; Morphology ([2]; line of the table gives 30 mM): sphere
11 | O=C(CNC(=O)[C@@H]1CCCN1)N[C@@H](Cc1c[nH]c2ccccc12)C(=O)N[C@@H](Cc1c[nH]c2ccccc12)C(=O)O [PGWW] (H-PGWW-OH) | 120000 | sol | 0 | aggregates | morphology by TEM (in words) [2]: aggregates with different sizes
12 | CC[C@H](C)[C@H](NC(=O)[C@@H]1CCCN1)C(=O)N[C@@H](Cc1ccccc1)C(=O)N[C@@H](Cc1ccc(O)cc1)C(=O)O [PIFY] (H-PIFY-OH) | 30000 |  |  |  | State [1, 5]: gel; GELATION ([1]; peptide concentration 30 mM): 1; Morphology ([2]; line of the table gives 30 mM): sphere
13 | CSCC[C@H](NC(=O)[C@@H]1CCCN1)C(=O)N[C@@H](Cc1ccccc1)C(=O)N[C@@H](Cc1ccc(O)cc1)C(=O)O [PMFY] (H-PMFY-OH) | 60000 |  |  |  | State [1, 6]: gel; GELATION ([1]; peptide concentration 60 mM): 1; Morphology ([2]; line of the table gives 60 mM): sheet
14 | O=C(O)[C@@H]1CCCN1C(=O)[C@@H]1CCCN1C(=O)[C@@H]1CCCN1C(=O)[C@@H]1CCCN1 [PPPP] (H-PPPP-OH) | 120000 | suspension | 0 | particle | 
15 | CC(C)[C@H](NC(=O)[C@@H]1CCCN1)C(=O)N[C@@H](Cc1ccccc1)C(=O)N[C@@H](Cc1c[nH]c2ccccc12)C(=O)O [PVFW] (H-PVFW-OH) | 60000 |  |  |  | State [1, 6]: gel; GELATION ([1]; peptide concentration 60 mM): 1; Morphology ([2]; line of the table gives 60 mM): hybrid(needle+fibre)
16 | CC(C)[C@H](NC(=O)[C@@H]1CCCN1)C(=O)N[C@@H](Cc1ccccc1)C(=O)N[C@@H](Cc1ccc(O)cc1)C(=O)O [PVFY] (H-PVFY-OH) | 30000 |  |  |  | State [1, 5]: gel; GELATION ([1]; peptide concentration 30 mM): 1; Morphology ([2]; line of the table gives 30 mM): needle
17 | CC[C@H](C)[C@H](NC(=O)[C@@H](NC(=O)[C@@H](NC(=O)[C@@H]1CCCN1)C(C)C)[C@@H](C)CC)C(=O)O [PVII] (H-PVII-OH) | 90000 |  |  |  | State [1, 3]: gel; GELATION ([1]; peptide concentration 90 mM): 1; Morphology ([2]; line of the table gives 90 mM): fibre
18 | O=C(O)[C@H](CS)NC(=O)[C@H](Cc1c[nH]c2ccccc12)NC(=O)[C@H](Cc1c[nH]c2ccccc12)NC(=O)[C@@H]1CCCN1 [PWWC] (H-PWWC-OH) | 120000 | suspension | 0 | aggregates | 
19 | O=C(O)[C@H](Cc1ccc(O)cc1)NC(=O)[C@H](Cc1c[nH]c2ccccc12)NC(=O)[C@H](Cc1c[nH]c2ccccc12)NC(=O)[C@@H]1CCCN1 [PWWY] (H-PWWY-OH) | 120000 | sol | 0 | aggregates | 
20 | O=C(O)[C@H](Cc1c[nH]c2ccccc12)NC(=O)[C@H](Cc1ccc(O)cc1)NC(=O)[C@H](Cc1c[nH]c2ccccc12)NC(=O)[C@@H]1CCCN1 [PWYW] (H-PWYW-OH) | 120000 | gel | 1 | aggregates | 
21 | O=C(O)[C@H](Cc1ccc(O)cc1)NC(=O)[C@H](Cc1ccc(O)cc1)NC(=O)[C@H](Cc1c[nH]c2ccccc12)NC(=O)[C@@H]1CCCN1 [PWYY] (H-PWYY-OH) | 60000 |  |  |  | State [1, 6]: gel; GELATION ([1]; peptide concentration 60 mM): 1; Morphology ([2]; line of the table gives 60 mM): aggregates
22 | CC[C@H](C)[C@H](NC(=O)[C@H](Cc1ccc(O)cc1)NC(=O)[C@H](Cc1ccc(O)cc1)NC(=O)[C@@H]1CCCN1)C(=O)O [PYYI] (H-PYYI-OH) | 120000 | sol | 0 | aggregates | 
23 | CC[C@H](C)[C@H](NC(=O)[C@@H](NC(=O)[C@H](Cc1c[nH]cn1)NC(=O)[C@@H](N)CCC(N)=O)[C@@H](C)CC)C(=O)O [QHII] (H-QHII-OH) | 120000 | sol | 0 | aggregates | 
24 | CSCC[C@H](NC(=O)[C@@H](N)CCC(N)=O)C(=O)N[C@H](C(=O)N[C@H](C(=O)O)C(C)C)C(C)C [QMVV] (H-QMVV-OH) | 120000 | gel | 1 | aggregates | 
25 | N=C(N)NCCC[C@H](NC(=O)[C@H](CCCNC(=N)N)NC(=O)[C@H](CCCNC(=N)N)NC(=O)[C@@H](N)CCCNC(=N)N)C(=O)O [RRRR] (H-RRRR-OH) | 120000 | sol | 0 | aggregates | morphology by TEM (in words) [2]: aggregates with different sizes
